Key:
[1] = system: spontaneously hypertensive rats; assay: Hypotensive effect on systolic blood pressure of spontaneously hypertensive rats; assay type: in vivo, rat; conditions: SHR, oral, 10 mg/kg, at 1.5 hours
[2] = system: arterial actin-myosin interactions; assay: Inhibition of superprecipitation (antagonism of arterial actin-myosin interaction); assay type: biochemical; conditions: for Antag. of Actin-Myosin (percent inhibition of superprecipitation): six minute time-point; for antagonism of arterial actin-myosin interactions (in words): 'unlike' = does not antagonize as the compounds of the invention do
Experimental: (§1) The data reported herein was obtained at a six minute time-point rather than the 1.5, 5 and 12 minute time points indicated in the superprecipitation assay of the Silver et al. paper.
(§2) The following examples illustrate the preparation of a representative number of compounds of this invention. After each example, the Ca^+2 antagonist activity of the compound is presented in terms of percent relaxation of aortic tissue (P.R.) at 10^-5 M concentration. […] Inhibition of superprecipitation (Antag. of Actin-Myosin interaction) is expressed as percent inhibition (mean±standard error of the mean for at least 3 separate experiments) at a compound concentration. In the same manner, inhibition of myosin light chain phosphorylation (Antag. of MLCP) is expressed as a percent inhibition at a compound concentration. Similarly, the antihypertensive activity is reported in terms of millimeters mercury (mmHg) systolic blood pressure (B.P.) reduction at the stated time post 50 mg/kg oral dosing or other dosing as indicated.

[3] = system: isolated paced intact rabbit atria; assay: Cardiac depressant (negative inotropic) effect in isolated paced intact rabbit atria; assay type: cell-based; conditions: 3 Hz, 30° C.
Experimental: The potential for detrimental cardiac depressant (negative inotropic) effects of the compounds of this invention was assessed in isolated paced intact rabbit atria. Left and right atria (with nodal tissue excised) were suspended vertically in a jacketed (30° C.) organ bath containing 50 ml of PSS and aerated with 95% O2 /5% CO2. Muscles (N=5-9/compound) were stimulated at a frequency of 3 Hz with a WPI stimulator for a 60 minute equilibration period. Changes in isometric force were recorded as described for the aoritc smooth muscle experiments,supra. Following equilibration, the test compound (or as a control, the ethanol vehicle) was added to the organ bath in a cumulative manner from doses ranging from 10^-9 M to 10^-5 M (10^-5 M was the maximum dose which could be attained due to the depressant effect of ethanol) and effects on developed isometric force were determined. […]
The following examples illustrate the preparation of a representative number of compounds of this invention. […] Inhibition of superprecipitation (Antag. of Actin-Myosin interaction) is expressed as percent inhibition (mean±standard error of the mean for at least 3 separate experiments) at a compound concentration. In the same manner, inhibition of myosin light chain phosphorylation (Antag. of MLCP) is expressed as a percent inhibition at a compound concentration. […]

[4] = system: Ca^+2 -calmodulin dependent myosin light chain phosphorylation; assay: Inhibition of Ca+2-calmodulin dependent myosin light chain phosphorylation (MLCP); assay type: biochemical; conditions: 'unlike' = does not antagonize as the compounds of the invention do
Experimental: as §1, §2

| Structure (SMILES) | B.P. (systolic blood pressure reduction) [1] | Antag. of Actin-Myosin (percent inhibition of superprecipitation) ([2]; 100 μM) | IC25 (concentration producing 25% inhibition of isometric force) [3] | Antag. of Actin-Myosin (percent inhibition of superprecipitation) ([2]; 50 μM) | antagonism of arterial actin-myosin interactions (in words) [2] | antagonism of Ca^+2 -calmodulin dependent myosin light chain phosphorylation (in words) [4] |
| --- | --- | --- | --- | --- | --- | --- |
| CC1=C(C(=O)OCCOc2ccccc2)C(c2c(F)c(F)c(F)c(F)c2F)C2=C(CNCC2=O)N1 (racemic) [Example 2, 1,4,5,6,7,8-Hexahydro-2-methyl-5-oxo-4-(pentafluorophenyl)-1,7-naphthyridine-3-carboxylic acid 2-phenoxyethyl ester] | 39 mm | 72±2% |  |  |  |  |
| CC1=C(C(=O)OCCOc2ccccc2)C(c2c(F)c(F)c(F)c(F)c2F)C2=C(CNCC2=O)N1 (single isomer, unassigned; (+)) [Example 4, (+)-1,4,5,6,7,8-Hexahydro-2-methyl-5-oxo-4-(pentafluorophenyl)-1,7-naphthyridine-3-carboxylic acid 2-phenoxyethyl ester] |  | 71% | 0.8 µM | 38% |  |  |
| CC1=C(C(=O)OCCOc2ccccc2)C(c2c(F)c(F)c(F)c(F)c2F)C2=C(CNCC2=O)N1 (single isomer, unassigned; (-)) [Example 3, (-)-1,4,5,6,7,8-Hexahydro-2-methyl-5-oxo-4-(pentafluorophenyl)-1,7-naphthyridine-3-carboxylic acid 2-phenoxyethyl ester] |  | 76% | > 10 µM | 65% |  |  |
| COc1ccc(CCN(C)CCCC(C#N)(c2ccc(OC)c(OC)c2)C(C)C)cc1OC (centres unmarked) [Verapamil, reference compound] |  |  |  |  | unlike | unlike |
| COC(=O)C1=C(C)NC(C)=C(C(=O)OC)C1c1ccccc1[N+](=O)[O-] [nifedipine, reference compound] |  |  |  |  | unlike | unlike |
| CCOC(=O)C1=C(C)NC(C)=C(C(=O)OC)C1c1cccc([N+](=O)[O-])c1 (centres unmarked) [nitrendipine, reference compound] |  |  |  |  | unlike | unlike |

From patent publication US4618678A, “4-(2,3-dichloro-6-fluorophenyl)-1,4,5,6,7,8-hexahyd ro-2-methyl-5-oxo-1,7-naphthyridine-3-carboxylic acid 2-(2,3-dichlorophenoxy)ethyl ester” (American Home Products Corporation, priority 1985, dated 1986)
